Read-outs that look alike come from different tables or passages of the source. Some results are limits rather than exact numbers.

This assay addresses T1, (Homo sapiens, UniProt Q96P20).
T1 construct: IL-1β ELISA of supernatant
In words: IL-1β secretion assay in THP-1 cells (PMA differentiated, LPS and nigericin stimulated; ELISA). The class given is cell-based. How it is done:
Biochemical Assay of the Compounds
Procedure for Culturing THP-1 Cells
Compounds as provided herein were tested in the following assay. Cell culture medium employed contained RPMI 1640 medium (89%), FBS (10%), Pen/Strep (1%), and 2-mercaptoethanol (0.05 mM). Freezing medium was made up of 90% FBS and 10% DMSO. THP-1 cells were removed from the liquid nitrogen and placed into a 37 °C water bath to thaw, until signs of ice dissipated. The cells were then added to 9 mL of warm cell culture medium and centrifuged for 5 minutes at 1000 rpm. The supernatant was discarded, and the cells were resuspended in new cell culture medium. THP-1 cells were then split and cultured in the cell culture medium, being passaged every 2-3 days with the cell density will be maintained between 5×10^5 and 1.5×10^6 viable cells/mL.
To freeze, cells were resuspended with fresh freezing medium, adjusting the cell density to 5×10^6 cells/mL. The cell suspension was partitioned into 1 mL aliquots per vial, and the vials were transferred to a −80 °C freezer. After one day at −80 °C, the cell vials were transferred to liquid nitrogen freezer for storage.
Procedure for IL-Iβ Secretion Assay in 384-Well Plates
PMA was dissolved in DMSO to make a stock solution at 5 mg/ml and stored in 10 μl aliquots at −20 °C for single use. PMA is added to normal growth medium. LPS was diluted with 1 mL of water solution to provide a 1 mg/mL stock solution and stored in 15 μL aliquots at −20 °C for single use. Nigericin is diluted in ice cold 100% ethanol to 5 mg/ml (6.7 mM) and stored in 75 μL aliquots at −20 °C for single use. Serum-free media contains RPMI 1640 medium (99%), Pen/Strep (1%), and 2-mercaptoethanol (0.05 mM). The two control conditions used to qualify and normalize test compound dose-response curves were as follows: High Control=25 ng/mL LPS, 5 μM Nigericin, 0.5% DMSO, Low Control=25 ng/ml, LPS, 0.5% DMSO.
Day 1: Differentiation with PMA
THP-1 cells were diluted to provide a suspension at a concentration of 1.0×10^6 cells/mL with the total volume of suspension required to enable the desired number of assay plates. The growth media was supplemented with PMA (5 ng/mL final concentration) and the cells were incubated at 37 °C under a humidified atmosphere of 5% CO2 for 40 h.
Day 3: Plating with Sequential LPS and Nigericin Stimulation
All media was carefully aspirated from each culture flask. The cells were washed carefully with 1× DPBS. The cells were then briefly digested with trypsin LE for 5 minutes at 23 °C and immediately resuspended in cell growth media. After resuspension, the cells were centrifuged at 1000 rpm for 3 minutes and the supernatant was discarded. The cells were resuspended in DPBS and once again centrifuged at 1000 rpm for 5 minutes. The supernatant was discarded and the cell pellet was resuspended in serum-free media supplemented with LPS (25 ng/mL final concentration) to enable the distribution of 30K THP-1 cells within 45 μL of media into each well of 384-well PDL-coated plates. The 384-well plates were then incubated at 37 °C under a humidified atmosphere of 5% CO2 for 2 h. Following this period, test compounds were dispensed by Tecan across the desired concentration range with all wells normalized to a final 0.5% DMSO concentration. The plates were then then incubated at 37 °C under a humidified atmosphere of 5% CO2 for 1 h. Following this period, 5 μL of the […] nigericin stock solution was added to each of the appropriate wells and plates were centrifuged at 1000 rpm for 30 seconds. The plates were the immediately reintroduced to the incubator at 37 °C under a humidified atmosphere of 5% CO2 for 2 h. After this time, 35 μL/well of supernatant was collected and transferred into v-bottom plate and centrifuged at 1000 rpm for 1 minute. These supernatant aliquots were analyzed using an IL-Iβ detection kit as described below. If needed, the test samples could be snap frozen and stored at −80 °C until analyzed. […]

Where [1] appears, read: inhibition of IL-1β secretion, 25 ng/mL LPS, 5 μM Nigericin, 0.5% DMSO, read-out: Activity (IC50).
The mark [2] stands for this setting: inhibition of IL-1β secretion, 25 ng/mL LPS, 5 μM Nigericin, 0.5% DMSO, read-out: Activity (IC50 class).

T1 sequence (Q96P20 whole entry): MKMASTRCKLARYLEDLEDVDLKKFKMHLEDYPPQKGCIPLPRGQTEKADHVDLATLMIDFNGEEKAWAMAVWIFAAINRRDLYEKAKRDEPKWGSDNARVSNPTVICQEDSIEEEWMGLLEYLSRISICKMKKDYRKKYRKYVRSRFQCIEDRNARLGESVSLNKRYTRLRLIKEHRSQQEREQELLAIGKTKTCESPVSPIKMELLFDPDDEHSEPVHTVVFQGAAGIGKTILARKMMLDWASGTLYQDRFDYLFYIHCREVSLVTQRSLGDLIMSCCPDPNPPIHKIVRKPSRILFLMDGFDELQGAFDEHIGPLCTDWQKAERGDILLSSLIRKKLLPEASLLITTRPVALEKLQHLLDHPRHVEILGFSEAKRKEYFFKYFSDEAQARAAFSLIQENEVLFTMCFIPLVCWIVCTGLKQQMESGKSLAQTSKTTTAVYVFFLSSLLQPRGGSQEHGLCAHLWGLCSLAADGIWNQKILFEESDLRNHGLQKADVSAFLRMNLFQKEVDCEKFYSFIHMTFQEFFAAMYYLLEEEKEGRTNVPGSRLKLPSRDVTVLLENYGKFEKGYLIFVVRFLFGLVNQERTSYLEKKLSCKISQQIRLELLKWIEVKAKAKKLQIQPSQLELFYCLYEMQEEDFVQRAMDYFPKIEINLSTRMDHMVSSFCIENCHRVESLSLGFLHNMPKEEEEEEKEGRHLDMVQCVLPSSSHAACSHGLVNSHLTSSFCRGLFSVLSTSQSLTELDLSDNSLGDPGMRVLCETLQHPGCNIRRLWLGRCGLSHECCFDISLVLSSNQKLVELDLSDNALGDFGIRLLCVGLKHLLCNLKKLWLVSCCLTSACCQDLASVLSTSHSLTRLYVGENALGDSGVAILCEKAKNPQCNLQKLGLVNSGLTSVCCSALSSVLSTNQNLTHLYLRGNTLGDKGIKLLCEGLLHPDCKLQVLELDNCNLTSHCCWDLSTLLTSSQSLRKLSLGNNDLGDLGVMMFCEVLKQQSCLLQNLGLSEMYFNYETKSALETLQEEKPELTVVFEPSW

With `O=C(CN1C(=O)c2ccc(Br)cc2[C@]2(C(F)(F)F)C[C@H]12)Nc1ncc(F)cn1` (single isomer, unassigned) [compound 3, 2-[trans-6-bromo-3-oxo-7b-(trifluoromethyl)-1,1a-dihydrocyclopropa[c]isoquinolin-2-yl]-N-(5-fluoropyrimidin-2-yl) acetamide], the IC50 is 9500 nM under setting [1] and 1000 to 10000 nM under setting [2].

As to `O=C(CN1C(=O)c2ccc(Br)cc2[C@@H]2CCC[C@@H]21)Nc1ncc(F)cn1` (relative stereo) [compound 1, 2-(cis-8-bromo-5-oxo-2,3,3a,9b-tetrahydro-1H-cyclopenta[c]isoquinolin-4-yl)-N-(5-fluoropyrimidin-2-yl) acetamide], the IC50 by setting is: (read-out: Activity (IC50), inhibition of IL-1β secretion, 25 ng/mL LPS, 5 μM Nigericin, 0.5% DMSO) 700 nM; (read-out: Activity (IC50 class), inhibition of IL-1β secretion, 25 ng/mL LPS, 5 μM Nigericin, 0.5% DMSO) under 1000 nM.

With `O=C(CN1C(=O)c2ccc(Br)cc2[C@@H]2CC[C@@H]21)Nc1ncc(F)cn1` (relative stereo) [compound 4, 2-(cis-7-bromo-4-oxo-1,2,2a,8b-tetrahydrocyclobuta[c]isoquinolin-3-yl)-N-(5-fluoropyrimidin-2-yl) acetamide], the IC50 runs as follows: under setting [1], 240 nM; under setting [2], under 1000 nM.

For `O=C(CN1C(=O)c2ccc(Br)cc2[C@@H]2C[C@@H]21)Nc1ncc(F)cn1` (relative stereo) [compound 5, 2-(cis-6-bromo-3-oxo-1a,7b-dihydro-1H-cyclopropa[c]isoquinolin-2-yl)-N-(5-fluoropyrimidin-2-yl) acetamide], the IC50 is, setting by setting: under setting [1], 800 nM; under setting [2], under 1000 nM.

For the compound `O=C(CN1C(=O)c2ccc(Br)cc2[C@]2(C(F)(F)F)C[C@H]12)Nc1ncc(F)cn1` (single isomer, unassigned) [compound 2, 2-[trans-6-bromo-3-oxo-7b-(trifluoromethyl)-1,1a-dihydrocyclopropa[c]isoquinolin-2-yl]-N-(5-fluoropyrimidin-2-yl) acetamide], the IC50 by setting is: under setting [1], 270 nM; under setting [2], under 1000 nM.

Values taken from patent US20260374752A1, “COMPOUNDS, COMPOSITIONS, AND METHODS” (Tenvie Therapeutics, Inc., priority 2023, published 2026).
